Publication PMC6318015 (Cancer research, 2018)

Molecular target: BRD4 (Homo sapiens, UniProt O60885)
Experiment: PROTAC-induced BRD4 degradation in HCT116 cells, immunoblot, […] h
Type: cell-based

DC50: 23.1 nM
SMILES: Cc1ncsc1-c1ccc(CNC(=O)[C@@H]2C[C@@H](O)CN2C(=O)[C@@H](NC(=O)COCCCCOCCCOc2ccc(NC(=O)C[C@@H]3N=C(c4ccc(Cl)cc4)c4c(sc(C)c4C)-n4c(C)nnc43)cc2)C(C)(C)C)cc1 [A743]
